Values after ≈ are worked out from the molar mass of the structure shown. Like-named read-outs stand apart in the source and are kept apart here.
Columns and labels:
[1] = system: vancomycin-middle resistant Staphylococcus aureus Mu50 strain; assay: In vitro antibacterial activity assay (MIC, CLSI dilution method); assay type: cell-based; details: 16 h; for MIC: Staphylococcus aureus, read-out: MIC Mu50
[2] = system: vancomycin-sensitive Staphylococcus aureus Newman strain; assay: as above; assay type: cell-based; details: 16 h, S. aureus Newman, 37° C.; for MIC: Staphylococcus aureus

Structure (SMILES)	MIC ([1]; S. aureus Mu50, 37° C.) [µg/mL]	MIC ([2]; NEWMAN) [µg/mL]	other results
CCCCCCCCCCNCCNC1(C)C[C@H](O[C@H]2C(Oc3c4cc5cc3Oc3ccc(cc3Cl)[C@@H](O)[C@@H](NC(=O)[C@@H](CC(C)C)NC)C(=O)N[C@@H](CC(N)=O)C(=O)N[C@H]5C(=O)N[C@H]3C(=O)N[C@H](C(=O)N[C@H](C(=O)O)c5cc(O)c(CNCCOC6OC(CO)[C@@H](O)C(O)C6O)c(O)c5-c5cc3ccc5O)[C@H](O)c3ccc(c(Cl)c3)O4)O[C@H](CO)C(O)C2O)OC(C)[C@H]1O (stereo partly drawn) [Van001]	2 (≈ 1.07 µM)	1 (≈ 0.535 µM)	
CCCCCCCCCCNCCNC1(C)C[C@H](O[C@H]2C(Oc3c4cc5cc3Oc3ccc(cc3Cl)[C@@H](O)[C@@H](NC(=O)[C@@H](CC(C)C)NC)C(=O)N[C@@H](CC(N)=O)C(=O)N[C@H]5C(=O)N[C@H]3C(=O)N[C@H](C(=O)N[C@H](C(=O)O)c5cc(O)c(CNCCO[C@@H]6OC(CO)[C@H](O)C(O)C6O)c(O)c5-c5cc3ccc5O)[C@H](O)c3ccc(c(Cl)c3)O4)O[C@H](CO)C(O)C2O)OC(C)[C@H]1O (stereo partly drawn) [Van002]	2 (≈ 1.07 µM)	0.5 (≈ 0.268 µM)	
CCCCCCCCCCNCCNC1(C)C[C@H](O[C@H]2C(Oc3c4cc5cc3Oc3ccc(cc3Cl)[C@@H](O)[C@@H](NC(=O)[C@@H](CC(C)C)NC)C(=O)N[C@@H](CC(N)=O)C(=O)N[C@H]5C(=O)N[C@H]3C(=O)N[C@H](C(=O)N[C@H](C(=O)O)c5cc(O)c(CNCCO[C@@H]6OC(CO)[C@@H](O)C(O)C6NC(C)=O)c(O)c5-c5cc3ccc5O)[C@H](O)c3ccc(c(Cl)c3)O4)O[C@H](CO)C(O)C2O)OC(C)[C@H]1O (stereo partly drawn) [Van003]	16 (≈ 8.38 µM)	4 (≈ 2.1 µM)	
CCCCCCCCCCNCCNC1(C)C[C@H](O[C@H]2C(Oc3c4cc5cc3Oc3ccc(cc3Cl)[C@@H](O)[C@@H](NC(=O)[C@@H](CC(C)C)NC)C(=O)N[C@@H](CC(N)=O)C(=O)N[C@H]5C(=O)N[C@H]3C(=O)N[C@H](C(=O)N[C@H](C(=O)O)c5cc(O)c(CNCCO[C@@H]6OC(CO)[C@@H](O)C(O)C6O)c(O)c5-c5cc3ccc5O)[C@H](O)c3ccc(c(Cl)c3)O4)O[C@H](CO)C(O)C2O)OC(C)[C@H]1O (stereo partly drawn) [Van004]	4 (≈ 2.14 µM)	1 (≈ 0.535 µM)	
CCCCCCCCCCNCCNC1(C)C[C@H](O[C@@H]2C(O)C(O)[C@@H](CO)O[C@H]2Oc2c3cc4cc2Oc2ccc(cc2Cl)[C@@H](O)[C@@H](NC(=O)[C@@H](CC(C)C)NC)C(=O)N[C@@H](CC(N)=O)C(=O)N[C@H]4C(=O)N[C@@H]2C(=O)N[C@H](C(=O)N[C@H](C(=O)O)c4cc(O)c(CNCCO)c(O)c4-c4cc2ccc4O)[C@H](O)c2ccc(c(Cl)c2)O3)O[C@@H](C)[C@H]1O (stereo partly drawn) [Van005]	4 (≈ 2.35 µM)	1 (≈ 0.586 µM)	
CCCCCCCCCCNCCNC1(C)C[C@H](O[C@@H]2C(O)C(O)[C@@H](CO)O[C@H]2Oc2c3cc4cc2Oc2ccc(cc2Cl)[C@@H](O)[C@@H](NC(=O)[C@@H](CC(C)C)NC)C(=O)N[C@@H](CC(N)=O)C(=O)N[C@H]4C(=O)N[C@@H]2C(=O)N[C@H](C(=O)N[C@H](C(=O)O)c4cc(O)c(CNC5C(O)OC(CO)[C@@H](O)[C@@H]5O)c(O)c4-c4cc2ccc4O)[C@H](O)c2ccc(c(Cl)c2)O3)O[C@@H](C)[C@H]1O (stereo partly drawn) [Van006]		8 (≈ 4.39 µM)	MIC Mu50 ([1]; S. aureus Mu50, 37° C.): 32 µg/mL (≈ 17.5 µM)
CCCCCCCCCCNCCNC1(C)C[C@H](O[C@@H]2C(O)C(O)[C@@H](CO)O[C@H]2Oc2c3cc4cc2Oc2ccc(cc2Cl)[C@@H](O)[C@@H](NC(=O)[C@@H](CC(C)C)NC)C(=O)N[C@@H](CC(N)=O)C(=O)N[C@H]4C(=O)N[C@@H]2C(=O)N[C@H](C(=O)N[C@H](C(=O)O)c4cc(O)c(CNC5C(O)OC(CO)[C@@H](O)[C@@H]5O)c(O)c4-c4cc2ccc4O)[C@H](O)c2ccc(c(Cl)c2)O3)O[C@@H](C)[C@H]1O (stereo partly drawn) [Van007]			MIC Mu50 ([1]; S. aureus Mu50, 37° C.): 8 µg/mL (≈ 4.39 µM); MIC Newman [2]: 4 µg/mL (≈ 2.19 µM)
CCCCCCCCCCNCCNC1(C)C[C@H](O[C@@H]2C(O)C(O)[C@@H](CO)O[C@H]2Oc2c3cc4cc2Oc2ccc(cc2Cl)[C@@H](O)[C@@H](NC(=O)[C@@H](CC(C)C)NC)C(=O)N[C@@H](CC(N)=O)C(=O)N[C@H]4C(=O)N[C@@H]2C(=O)N[C@H](C(=O)N[C@H](C(=O)O)c4cc(O)c(CNC5C(O)OC(CO)[C@H](O)[C@@H]5O)c(O)c4-c4cc2ccc4O)[C@H](O)c2ccc(c(Cl)c2)O3)O[C@@H](C)[C@H]1O (stereo partly drawn) [Van008]	0.25 (≈ 0.137 µM)	≤ 0.0625	
CCCCCCCCCCNCCNC1(C)C[C@H](O[C@H]2C(Oc3c4cc5cc3Oc3ccc(cc3Cl)[C@@H](O)[C@@H](NC(=O)[C@@H](CC(C)C)NC)C(=O)N[C@@H](CC(N)=O)C(=O)N[C@H]5C(=O)N[C@H]3C(=O)N[C@H](C(=O)N[C@H](C(=O)O)c5cc(O)c(CNCCCNC(=O)[C@H](O)[C@@H](O)[C@H](O)[C@H](O)CO)c(O)c5-c5cc3ccc5O)[C@H](O)c3ccc(c(Cl)c3)O4)O[C@H](CO)C(O)C2O)OC(C)[C@H]1O (stereo partly drawn) [Van009]	1 (≈ 0.527 µM)	0.5 (≈ 0.264 µM)	
CCCCCCCCCCNCCNC1(C)C[C@H](O[C@H]2C(Oc3c4cc5cc3Oc3ccc(cc3Cl)[C@@H](O)[C@@H](NC(=O)[C@@H](CC(C)C)NC)C(=O)N[C@@H](CC(N)=O)C(=O)N[C@H]5C(=O)N[C@H]3C(=O)N[C@H](C(=O)N[C@H](C(=O)O)c5cc(O)c(CNCCCNC(=O)[C@H](O)[C@@H](O)[C@H](O[C@@H]6OC(CO)[C@H](O)C(O)C6O)[C@H](O)CO)c(O)c5-c5cc3ccc5O)[C@H](O)c3ccc(c(Cl)c3)O4)O[C@H](CO)C(O)C2O)OC(C)[C@H]1O (stereo partly drawn) [Van010]	1 (≈ 0.486 µM)	0.25 (≈ 0.121 µM)	
CN[C@H](CC(C)C)C(=O)N[C@H]1C(=O)N[C@@H](CC(N)=O)C(=O)N[C@H]2C(=O)N[C@H]3C(=O)N[C@H](C(=O)N[C@H](C(=O)O)c4cc(O)c(CNCCO[C@@H]5OC(CO)[C@H](O)C(O)C5O)c(O)c4-c4cc3ccc4O)[C@H](O)c3ccc(c(Cl)c3)Oc3cc2cc(c3OC2O[C@H](CO)C(O)C(O)[C@H]2O[C@@H]2CC(C)[C@@H](O)C(C)(NCc3ccc(-c4ccc(Cl)cc4)cc3)C2)Oc2ccc(cc2Cl)[C@H]1O (stereo partly drawn) [Van011]	1 (≈ 0.531 µM)	≤ 0.0625	
CN[C@H](CC(C)C)C(=O)N[C@H]1C(=O)N[C@@H](CC(N)=O)C(=O)N[C@H]2C(=O)N[C@H]3C(=O)N[C@H](C(=O)N[C@H](C(=O)O)c4cc(O)c(CNCCO[C@H]5OC(CO)[C@@H](O)C(O)C5O)c(O)c4-c4cc3ccc4O)[C@H](O)c3ccc(c(Cl)c3)Oc3cc2cc(c3OC2O[C@H](CO)C(O)C(O)[C@H]2O[C@@H]2CC(C)[C@@H](O)C(C)(NCc3ccc(-c4ccc(Cl)cc4)cc3)C2)Oc2ccc(cc2Cl)[C@H]1O (stereo partly drawn) [Van013]			MIC [1]: 4 µg/mL (≈ 2.12 µM); MIC [2]: 2 µg/mL (≈ 1.06 µM)
CN[C@H](CC(C)C)C(=O)N[C@H]1C(=O)N[C@@H](CC(N)=O)C(=O)N[C@H]2C(=O)N[C@H]3C(=O)N[C@H](C(=O)N[C@H](C(=O)O)c4cc(O)c(CNCCCNC(=O)[C@H](O)[C@@H](O)[C@H](O)[C@H](O)CO)c(O)c4-c4cc3ccc4O)[C@H](O)c3ccc(c(Cl)c3)Oc3cc2cc(c3OC2O[C@H](CO)C(O)C(O)[C@H]2O[C@@H]2CC(C)[C@@H](O)C(C)(NCc3ccc(-c4ccc(Cl)cc4)cc3)C2)Oc2ccc(cc2Cl)[C@H]1O (stereo partly drawn) [Van014]			MIC [1]: 0.125 µg/mL (≈ 0.0654 µM); MIC [2]: 0.25 µg/mL (≈ 0.131 µM)
CN[C@H](CC(C)C)C(=O)N[C@H]1C(=O)N[C@@H](CC(N)=O)C(=O)N[C@H]2C(=O)N[C@@H]3C(=O)N[C@H](C(=O)N[C@H](C(=O)O)c4cc(O)c(CNCCCNC(=O)[C@H](O)[C@@H](O)[C@H](O[C@@H]5OC(CO)[C@H](O)C(O)[C@@H]5O)[C@H](O)CO)c(O)c4-c4cc3ccc4O)[C@H](O)c3ccc(c(Cl)c3)Oc3cc2cc(c3OC2O[C@H](CO)C(O)C(O)[C@H]2O[C@H]2CC(C)(NCc3ccc(-c4ccc(Cl)cc4)cc3)[C@H](O)C(C)O2)Oc2ccc(cc2Cl)[C@H]1O (stereo partly drawn) [Van015]			MIC [1]: 0.5 µg/mL (≈ 0.241 µM); MIC [2]: 0.25 µg/mL (≈ 0.12 µM)
CN[C@H](CC(C)C)C(=O)N[C@H]1C(=O)N[C@@H](CC(N)=O)C(=O)N[C@H]2C(=O)N[C@H]3C(=O)N[C@H](C(=O)N[C@H](C(=O)O)c4cc(O)c(CNCCCNC(=O)[C@H](O)[C@@H](O)[C@H](O)[C@H](O)CO)c(O)c4-c4cc3ccc4O)[C@H](O)c3ccc(c(Cl)c3)Oc3cc2cc(c3OC2O[C@H](CO)C(O)C(O)[C@H]2O[C@@H]2CC(C)[C@@H](O)C(C)(NCc3ccc(OCc4cccc(-c5ccccc5)c4C)c(Cl)c3)C2)Oc2ccc(cc2Cl)[C@H]1O (stereo partly drawn) [Van017]	1 (≈ 0.492 µM)	0.5 (≈ 0.246 µM)	
CCc1ccc(CNC2(C)C[C@H](O[C@H]3C(Oc4c5cc6cc4Oc4ccc(cc4Cl)[C@@H](O)[C@@H](NC(=O)[C@@H](CC(C)C)NC)C(=O)N[C@@H](CC(N)=O)C(=O)N[C@H]6C(=O)N[C@H]4C(=O)N[C@H](C(=O)N[C@H](C(=O)O)c6cc(O)c(CNCCCNC(=O)[C@H](O)[C@@H](O)[C@H](O)[C@H](O)CO)c(O)c6-c6cc4ccc6O)[C@H](O)c4ccc(c(Cl)c4)O5)O[C@H](CO)C(O)C3O)CC(C)[C@H]2O)cc1 (stereo partly drawn) [Van018]	8 (≈ 4.37 µM)	4 (≈ 2.19 µM)	
CCCCCCCCCNC1(C)C[C@H](O[C@H]2C(Oc3c4cc5cc3Oc3ccc(cc3Cl)[C@@H](O)[C@@H](NC(=O)[C@@H](CC(C)C)NC)C(=O)N[C@@H](CC(N)=O)C(=O)N[C@H]5C(=O)N[C@H]3C(=O)N[C@H](C(=O)N[C@H](C(=O)O)c5cc(O)c(CNCCCNC(=O)[C@H](O)[C@@H](O)[C@H](O)[C@H](O)CO)c(O)c5-c5cc3ccc5O)[C@H](O)c3ccc(c(Cl)c3)O4)O[C@H](CO)C(O)C2O)CC(C)[C@H]1O (stereo partly drawn) [Van019]	2 (≈ 1.09 µM)	0.5 (≈ 0.272 µM)	
CN[C@H](CC(C)C)C(=O)N[C@H]1C(=O)N[C@@H](CC(N)=O)C(=O)N[C@H]2C(=O)N[C@@H]3C(=O)N[C@H](C(=O)NC(C(=O)NCCCN(C)C)c4cc(O)cc(O)c4-c4cc3ccc4O)[C@H](O)c3ccc(c(Cl)c3)Oc3cc2cc(c3OC2O[C@H](CO)C(O)C(O)[C@H]2O[C@H]2CC(C)(NCc3ccc(-c4ccc(Cl)cc4)cc3)[C@H](O)C(C)O2)Oc2ccc(cc2Cl)[C@H]1O (stereo partly drawn) [Van020]			MIC [1]: 1 µg/mL (≈ 0.577 µM); MIC [2]: 1 µg/mL (≈ 0.577 µM)
